This test deals with T1, PAK2 (PAK65) (Homo sapiens, UniProt Q13177).
T1 construct: purchased Thermo Fisher Scientific (Life Technologies) SelectScreen
The test can be described thus: SelectScreen Z'LYTE. Format: biochemical. In outline: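 NU5455 was profiled across the SelectScreen Broad panel of kinase activity and binding assays. Z'LYTE reactions such as CSF1R ran at apparent Km ATP, while the Adapta CAMK1 assay used ATP listed as 10. Values are given as percent.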

As usually defined, the inhibition is the percentage by which the read-out fell short of the control. A lower inhibition goes with a weak effect.

T1 sequence (Q13177 whole entry): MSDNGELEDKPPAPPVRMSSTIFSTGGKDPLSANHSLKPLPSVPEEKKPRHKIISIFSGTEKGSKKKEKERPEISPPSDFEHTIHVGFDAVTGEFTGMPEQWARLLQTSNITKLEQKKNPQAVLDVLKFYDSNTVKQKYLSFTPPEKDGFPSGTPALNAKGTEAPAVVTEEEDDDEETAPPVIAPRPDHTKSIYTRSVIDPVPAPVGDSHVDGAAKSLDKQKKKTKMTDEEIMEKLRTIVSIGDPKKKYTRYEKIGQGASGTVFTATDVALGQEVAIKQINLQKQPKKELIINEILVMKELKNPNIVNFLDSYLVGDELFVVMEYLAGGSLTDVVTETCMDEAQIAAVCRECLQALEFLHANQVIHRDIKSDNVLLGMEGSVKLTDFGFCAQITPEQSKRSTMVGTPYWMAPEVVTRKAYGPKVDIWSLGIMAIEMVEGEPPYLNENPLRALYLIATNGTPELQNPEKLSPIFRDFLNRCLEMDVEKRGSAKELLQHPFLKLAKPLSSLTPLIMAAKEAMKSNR

The compound `CN(C(=O)CN1CCOCC1)c1ccc2sc3c(-c4cccc5c(=O)cc(N6CC7CCC(C6)O7)oc45)cccc3c2c1` [NU5455] displayed an inhibition at 1 µM of 4%.

For the origin of these results see PMC6934184, “Selective DNA-PKcs inhibition extends the therapeutic index of localized radiotherapy and chemotherapy” (The Journal of Clinical Investigation, 2019).
